Experimental findings from patent US10828301B2, “2,4-pyrimidinediamine compounds and their uses” (Rigel Pharmaceuticals, Inc, priority 2002, dated 2020) are described below.

The structures appear in SMILES notation. Where two headings read alike, the source gives them in different places. Where only a bound is given, the exact number is not on record here.

Data set [1] is classed as in vivo. The note with it: rat, oral doses of 50, 150 and 300 mg/kg given for 32 days.
Data set [2] in a line: Oral bioavailability / pharmacokinetics in rats. In kind it is in vivo. The note with it: rat, in vivo. As to the method: Over 50 2,4-pyrimidinediamine compounds of the invention were tested for oral bioavailability. For the study, compounds were dissolved in various vehicles (e.g. PEG 400 solution and CMC suspension) for intravenous and oral dosing in the rats. Following administration of the drug, plasma samples were obtained and extracted. The plasma concentrations of the compounds were determined by high performance liquid chromatography/tandem mass spectrometry (LC/MS/MS) methods. Pharmacokinetic analyses were performed based on the plasma concentration data. The pharmacokinetic parameters of interest include Clearance (CL), Volume of distribution at steady-state (Vss), terminal half-life (t1/2), and oral bioavailability (% F).

Data set [3] can be described thus: in vitro chromosomal aberration assay. Type of data set: cell-based.
Data set [4] concerns cultured human mast cells (CHMC). Kind of data set: CHMC high cell density IgE activation: degranulation (hexos, tryptase, histamine), leukotriene (LTC4) and cytokine (TNFalpha, IL-13) assays. The note with it: anti-IgE activation. Type of data set: cell-based. In short, it runs like this:
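IgE-sensitized CHMC at 1-2×10^6 cells/ml in MT buffer were pretreated with compound for 1 h at 37 °C (0.5% DMSO final), then stimulated with anti-IgE for 1 h. Tryptase was measured in 1:500-diluted supernatant. Pellets were re-incubated for 7 h with compound in CM media, and supernatants were assayed by ELISA.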

For data set [5], the system named is basophils in whole human peripheral blood. Kind of data set: Basophil ionomycin activation: histamine release assay. Type of data set: cell-based. The note with it: Homo sapiens. As to the method: Assays for ionomycin-induced basophil cell degranulation were carried out as described for the Basophil IgE or Dustmite Activation Assay (Section 6.4.6, supra), with the exception that following incubation with compound, cells were stimulated with 20 μl of 2 μM ionomycin.

For data set [6] the test system is unchanged. Kind of data set: Basophil IgE activation: histamine release assay. The note with it: Homo sapiens, anti-IgE activation. Type of data set: cell-based. An outline of the steps: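 Dextran-sedimented whole blood from dust-mite-allergic human donors, resuspended in MT-buffer with 0.5% DMSO and preincubated with 8 compound concentrations in triplicate. Cells stimulated 30 min at 37 °C. Histamine released into the supernatant measured by ELISA.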

Regarding `Nc1cccc(Nc2ncc(F)c(Nc3cccc(N)c3)n2)c1` [Compound R921302, N2,N4-Bis(3-aminophenyl)-5-fluoro-2,4-pyrimidinediamine], the tolerability entry in data set [1] is on record as “well tolerated”. The “metabolic stability in pharmacokinetics studies” value in data set [2] is “most metabolically stable compound”. Besides, in data set [3], the clastogenic potential result is “not clastogenic”. The IC50 worked out at 1.67 µM in data set [4] (IL-13, read-out: CHMC high density IL-13); 0.514 µM in data set [4] (LTC4, read-out: CHMC high density LTC4); 1.17 µM in data set [4] (TNF-alpha, read-out: CHMC high density TNF-alpha); 0.682 µM in data set [4] (hexosaminidase release, read-out: CHMC high density hexos); 1.59 µM in data set [4] (histamine release, read-out: CHMC high density histamine); 0.795 µM in data set [4] (tryptase release, read-out: CHMC high density tryptase). The figures for the IC50 in data set [5] and in data set [6] were above 10 µM and 0.19 µM, respectively.
